The results in this text go back to patent US20250282794A1 (CURADEV PHARMA LTD, priority 2022, published 2025).

A value given as a limit tells only on which side of the number the result lay.

The assay concerns the target recombinant full length HPK-1 enzyme (Homo sapiens (Human), UniProt Q92918). The assay can be described thus: HPK-1 biochemical enzyme assay (ADP-Glo kinase inhibition). To be noted: recombinant full length HPK-1 6.8 nM, 10 μM ATP, 12.5 μM MBP, 30 mins at 25° C. The gist of the method: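 ADP-Glo readout of ADP formed after a 30 min, 25° C. reaction of 6.8 nM full-length HPK-1 with swine myelin basic protein (12.5 μM) and ATP (10 μM) in Tris pH 7.4 buffer with MgCl2, DTT and BSA. Ten compound concentrations tested; percent inhibition set against vehicle (0%) and no-enzyme (100%) controls gave IC50.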

Sequence of recombinant full length HPK-1 enzyme (Q92918 whole entry, species assumed): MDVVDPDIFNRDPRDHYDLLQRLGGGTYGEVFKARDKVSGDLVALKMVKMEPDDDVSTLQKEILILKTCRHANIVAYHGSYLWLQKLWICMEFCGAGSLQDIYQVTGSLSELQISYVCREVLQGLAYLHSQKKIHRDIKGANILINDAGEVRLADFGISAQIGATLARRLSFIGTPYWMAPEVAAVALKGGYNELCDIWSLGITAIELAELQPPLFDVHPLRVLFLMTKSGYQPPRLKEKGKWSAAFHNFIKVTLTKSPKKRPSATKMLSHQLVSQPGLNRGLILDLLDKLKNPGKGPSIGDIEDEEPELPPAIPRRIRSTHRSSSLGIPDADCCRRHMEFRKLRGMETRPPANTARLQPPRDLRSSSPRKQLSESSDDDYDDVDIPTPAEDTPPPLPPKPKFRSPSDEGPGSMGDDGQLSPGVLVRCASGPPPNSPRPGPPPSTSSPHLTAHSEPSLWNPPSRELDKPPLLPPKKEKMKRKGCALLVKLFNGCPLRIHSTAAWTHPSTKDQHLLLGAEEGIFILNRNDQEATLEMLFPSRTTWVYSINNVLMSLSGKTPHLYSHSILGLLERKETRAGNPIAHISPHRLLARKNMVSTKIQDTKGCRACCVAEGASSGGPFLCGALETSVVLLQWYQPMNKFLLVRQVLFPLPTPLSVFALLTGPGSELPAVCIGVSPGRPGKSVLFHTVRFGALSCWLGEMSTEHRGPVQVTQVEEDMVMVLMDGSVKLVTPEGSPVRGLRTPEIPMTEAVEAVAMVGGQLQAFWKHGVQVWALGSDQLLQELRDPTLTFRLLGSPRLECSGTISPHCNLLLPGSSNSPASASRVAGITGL

As to `Cc1c(Nc2cc[nH]c(=O)c2C(=O)Nc2ccc(N3CCC(C)(CO)CC3)cc2)cnc2c1NCCO2` [Example 301, N-(4-(4-(hydroxymethyl)-4-methylpiperidin-1-yl)phenyl)-4-((8-methyl-2,3-dihydro-1H-pyrido[2,3-b][1,4]oxazin-7-yl)amino)-2-oxo-1,2-dihydropyridine-3-carboxamide], the IC50 lay in the range of 10 to 100 nM.

In the case of `Cc1c(Nc2cc[nH]c(=O)c2C(=O)Nc2ccc(N3CCN(C)[C@H](C)C3)cc2)cnc2c1NCCO2` [Example 220, (R)-N-(4-(3,4-dimethylpiperazin-1-yl)phenyl)-4-((8-methyl-2,3-dihydro-1H-pyrido[2,3-b][1,4]oxazin-7-yl)amino)-2-oxo-1,2-dihydropyridine-3-carboxamide], the IC50 is no more than 10 nM.

Regarding `Cc1c(Nc2cc[nH]c(=O)c2C(=O)Nc2ccc(N3CCN(c4cnn(C)c4)CC3)cc2)cnc2c1NCCO2` [Example 410, N-(4-(4-(1-methyl-1H-pyrazol-4-yl)piperazin-1-yl)phenyl)-4-((8-methyl-2,3-dihydro-1H-pyrido[2,3-b][1,4]oxazin-7-yl)amino)-2-oxo-1,2-dihydropyridine-3-carboxamide], the IC50 is 10 to 100 nM.

`Cc1c(Nc2cc[nH]c(=O)c2C(=O)Nc2cnn(C3CCN(C)CC3)c2)cnc2c1NCC(C)O2` (stereo not shown) [Example 192, 4-((3,8-dimethyl-2,3-dihydro-1H-pyrido[2,3-b][1,4]oxazin-7-yl)amino)-N-(1-(1-methylpiperidin-4-yl)-1H-pyrazol-4-yl)-2-oxo-1,2-dihydropyridine-3-carboxamide]: the IC50 lay in the range of 10 to 100 nM.

In the case of `Cc1c(Nc2cc[nH]c(=O)c2C(=O)Nc2ccc(N3CCN(c4cncnc4)CC3)cc2)cnc2c1NCCO2` [Example 338, 4-((8-methyl-2,3-dihydro-1H-pyrido[2,3-b][1,4]oxazin-7-yl)amino)-2-oxo-N-(4-(4-(pyrimidin-5-yl)piperazin-1-yl)phenyl)-1,2-dihydropyridine-3-carboxamide], the IC50 lay within 10 to 100 nM.

For the compound `Cc1c(Nc2cc[nH]c(=O)c2C(=O)Nc2ccc(N3CCN(C(C)C)CC3)cc2)cnc2c1NCC(C)O2` (stereo not shown) [Example 169, 4-((3,8-dimethyl-2,3-dihydro-1H-pyrido[2,3-b][1,4]oxazin-7-yl)amino)-N-(4-(4-isopropylpiperazin-1-yl)phenyl)-2-oxo-1,2-dihydropyridine-3-carboxamide], the IC50 is no more than 10 nM.

`Cc1c(Nc2cc[nH]c(=O)c2C(=O)Nc2ccc(N3CCN(C)[C@@H](C)C3)cc2)cnc2c1NCCO2` [Example 219, (S)-N-(4-(3,4-dimethylpiperazin-1-yl)phenyl)-4-((8-methyl-2,3-dihydro-1H-pyrido[2,3-b][1,4]oxazin-7-yl)amino)-2-oxo-1,2-dihydropyridine-3-carboxamide]: the IC50 was no more than 10 nM.

As to `CCC(=O)N1CCN(c2ccc(NC(=O)c3c(Nc4cnc5c(c4C)NCCO5)cc[nH]c3=O)cc2)C[C@H]1C` [Example 347, (R)-4-((8-methyl-2,3-dihydro-1H-pyrido[2,3-b][1,4]oxazin-7-yl)amino)-N-(4-(3-methyl-4-propionylpiperazin-1-yl)phenyl)-2-oxo-1,2-dihydropyridine-3-carboxamide], the half-maximal inhibitory concentration (IC50) is no more than 10 nM.

Turning to `Cc1c(Nc2cc[nH]c(=O)c2C(=O)Nc2ccc(N3CCN(C(C)C)CC3)cc2)cnc2c1NCCO2` [Example 106, N-(4-(4-isopropylpiperazin-1-yl)phenyl)-4-((8-methyl-2,3-dihydro-1H-pyrido[2,3-b][1,4]oxazin-7-yl)amino)-2-oxo-1,2-dihydropyridine-3-carboxamide], the IC50 was no more than 10 nM.

For `Cc1c(Nc2cc[nH]c(=O)c2C(=O)Nc2ccc(N3CCN(C(=O)C4C(C)(C)C4(C)C)CC3)cc2)cnc2c1NCCO2` [Example 334, 4-((8-methyl-2,3-dihydro-1H-pyrido[2,3-b][1,4]oxazin-7-yl)amino)-2-oxo-N-(4-(4-(2,2,3,3-tetramethylcyclopropane-1-carbonyl)piperazin-1-yl)phenyl)-1,2-dihydropyridine-3-carboxamide], the IC50 was no more than 10 nM.

In the case of `Cc1c(Nc2cc[nH]c(=O)c2C(=O)Nc2ccc(N3CCN(C)CC3)c(Cl)c2)cnc2c1NCCO2` [Example 261, N-(3-chloro-4-(4-methylpiperazin-1-yl)phenyl)-4-((8-methyl-2,3-dihydro-1H-pyrido[2,3-b][1,4]oxazin-7-yl)amino)-2-oxo-1,2-dihydropyridine-3-carboxamide], the IC50 was no more than 10 nM.

For the compound `COCCN1CCN(c2ccc(NC(=O)c3c(Nc4cnc5c(c4C)NCCO5)cc[nH]c3=O)cc2)C[C@H]1C` [Example 348, (R)-N-(4-(4-(2-methoxyethyl)-3-methylpiperazin-1-yl)phenyl)-4-((8-methyl-2,3-dihydro-1H-pyrido[2,3-b][1,4]oxazin-7-yl)amino)-2-oxo-1,2-dihydropyridine-3-carboxamide], the IC50 is no more than 10 nM.

In the case of `Cc1c(Nc2cc[nH]c(=O)c2C(=O)Nc2cccc(N3CCN(C)CC3)c2)cnc2c1NCCO2` [Example 222, 4-((8-methyl-2,3-dihydro-1H-pyrido[2,3-b][1,4]oxazin-7-yl)amino)-N-(3-(4-methylpiperazin-1-yl)phenyl)-2-oxo-1,2-dihydropyridine-3-carboxamide], the IC50 lay within 100 to 1000 nM.

Consider `Cc1c(Nc2cc[nH]c(=O)c2C(=O)Nc2ccc(N3CCN(C)CC3)c(Br)c2)cnc2c1NCCO2` [Example 270, N-(3-bromo-4-(4-methylpiperazin-1-yl)phenyl)-4-((8-methyl-2,3-dihydro-1H-pyrido[2,3-b][1,4]oxazin-7-yl)amino)-2-oxo-1,2-dihydropyridine-3-carboxamide], for which the IC50 was no more than 10 nM.

For `Cc1c(Nc2cc[nH]c(=O)c2C(=O)Nc2cccc(S(=O)(=O)CCO)c2)cnc2c1NCCO2` [Example 245, N-(3-((2-hydroxyethyl)sulfonyl)phenyl)-4-((8-methyl-2,3-dihydro-1H-pyrido[2,3-b][1,4]oxazin-7-yl)amino)-2-oxo-1,2-dihydropyridine-3-carboxamide], the IC50 fell in the range of 100 to 1000 nM.

On to `Cc1c(Nc2cc[nH]c(=O)c2C(=O)Nc2ccc(N3CCN(C)CC3)cc2)cnc2c1NCC(C)O2` (stereo not shown) [Example 165, 4-((3,8-dimethyl-2,3-dihydro-1H-pyrido[2,3-b][1,4]oxazin-7-yl)amino)-N-(4-(4-methylpiperazin-1-yl)phenyl)-2-oxo-1,2-dihydropyridine-3-carboxamide], for which the IC50 is no more than 10 nM.

Turning to `Cc1c(Nc2cc[nH]c(=O)c2C(=O)Nc2ccc(N3CCN(C(=O)C4CC4(C)C)CC3)cc2)cnc2c1NCCO2` (stereo not shown) [Example 309, N-(4-(4-(2,2-dimethylcyclopropane-1-carbonyl)piperazin-1-yl)phenyl)-4-((8-methyl-2,3-dihydro-1H-pyrido[2,3-b][1,4]oxazin-7-yl)amino)-2-oxo-1,2-dihydropyridine-3-carboxamide], the IC50 was no more than 10 nM.

With `Cc1c(Nc2cc[nH]c(=O)c2C(=O)Nc2ccc(C3CCN(C)CC3)cc2)cnc2c1NCCO2` [Example 97, 4-((8-methyl-2,3-dihydro-1H-pyrido[2,3-b][1,4]oxazin-7-yl)amino)-N-(4-(1-methylpiperidin-4-yl)phenyl)-2-oxo-1,2-dihydropyridine-3-carboxamide], the IC50 is no more than 10 nM.

As to `Cc1c(Nc2cc[nH]c(=O)c2C(=O)Nc2ccc(N3CCN(C(C)C)CC3)cc2)cnc2c1NCC(C)O2` (stereo not shown) [Example 404, 4-((3,8-dimethyl-2,3-dihydro-1H-pyrido[2,3-b][1,4]oxazin-7-yl)amino)-N-(4-(4-isopropylpiperazin-1-yl)phenyl)-2-oxo-1,2-dihydropyridine-3-carboxamide], the IC50 is no more than 10 nM.

Regarding `Cc1c(Nc2cc[nH]c(=O)c2C(=O)Nc2ccc(N3CCN(C)CC3)c(N)c2)cnc2c1NCCO2` [Example 263, N-(3-Amino-4-(4-methylpiperazin-1-yl)phenyl)-4-((8-methyl-2,3-dihydro-1H-pyrido[2,3-b][1,4]oxazin-7-yl)amino)-2-oxo-1,2-dihydropyridine-3-carboxamide], the IC50 is no more than 10 nM.

`COCCN1CCN(c2ccc(NC(=O)c3c(Nc4cnc5c(c4C)NCCO5)cc[nH]c3=O)cc2)CC1` [Example 140, N-(4-(4-(2-methoxyethyl)piperazin-1-yl)phenyl)-4-((8-methyl-2,3-dihydro-1H-pyrido[2,3-b][1,4]oxazin-7-yl)amino)-2-oxo-1,2-dihydropyridine-3-carboxamide]: the IC50 is no more than 10 nM.

Regarding `Cc1c(Nc2cc[nH]c(=O)c2C(=O)Nc2ccc(N3CC4CCC(C3)N4C)cc2)cnc2c1NCC(C)O2` (stereo not shown) [Example 181, 4-((3,8-dimethyl-2,3-dihydro-1H-pyrido[2,3-b][1,4]oxazin-7-yl)amino)-N-(4-(8-methyl-3,8-diazabicyclo[3.2.1]octan-3-yl)phenyl)-2-oxo-1,2-dihydropyridine-3-carboxamide], the IC50 was 10 to 100 nM.

Regarding `Cc1c(Nc2cc[nH]c(=O)c2C(=O)Nc2ccc(N3CCN(c4ccn(C)n4)CC3)cc2)cnc2c1NCC(C)O2` (stereo not shown) [Example 407, 4-((3,8-dimethyl-2,3-dihydro-1H-pyrido[2,3-b][1,4]oxazin-7-yl)amino)-N-(4-(4-(1-methyl-1H-pyrazol-3-yl)piperazin-1-yl)phenyl)-2-oxo-1,2-dihydropyridine-3-carboxamide], the IC50 lay within 10 to 100 nM.

With `Cc1c(Nc2cc[nH]c(=O)c2C(=O)Nc2ccc(N3CCNCC3)cc2)cnc2c1NCCO2` [Example 139, 4-((8-methyl-2,3-dihydro-1H-pyrido[2,3-b][1,4]oxazin-7-yl)amino)-2-oxo-N-(4-(piperazin-1-yl)phenyl)-1,2-dihydropyridine-3-carboxamide], the IC50 was no more than 10 nM.

`CO[C@@H](C)C(=O)N1CCN(c2ccc(NC(=O)c3c(Nc4cnc5c(c4C)NCCO5)cc[nH]c3=O)cc2)CC1` [Example 350, (S)-N-(4-(4-(2-methoxypropanoyl)piperazin-1-yl)phenyl)-4-((8-methyl-2,3-dihydro-1H-pyrido[2,3-b][1,4]oxazin-7-yl)amino)-2-oxo-1,2-dihydropyridine-3-carboxamide]: the IC50 was no more than 10 nM.

By IC50 is commonly meant the concentration at which inhibition is half-maximal.
